Results: US6002008A, “Substituted 3-cyano quinolines” (American Cyanamid Company, priority 1998, dated 1999)

Key:
[1] = biological target: gastric (H^+ /K^+)-ATPase (Sus scrofa, UniProt P19156); conditions: Ife R. J., et al., J. Med. Chem., 35(18), 3413 (1992); cited from earlier work
[2] = biological target: recombinant human MEK 1 (MAPKK) and recombinant human ERK2 (MAPK); experiment: Mitogen Activated Protein Kinase (MAPK) Assay, coupled MEK/ERK; assay type: biochemical; conditions: separate entries = evaluated more than once
Protocol: To evaluate inhibitors of the MAP (mitogen activated protein) kinase a two component coupled standard pharmacological test procedure, which measures phosphorylation of a serine/threonine residue in an appropriate sequence in the substrate in the presence and absence of a putative inhibitor, was used. Recombinant human MEK 1 (MAPKK) was first used to activate recombinant human ERK2 (MAPK) and the activated MAPK (ERK) was incubated with substrate (MBP peptide or MYC peptide) in the presence of ATP, Mg^+2 and radiolabeled ^33 P ATP. The phosphorylated peptide was captured on a P 81 phosphocellulose filter (paper filter or embedded in microtiter plate) washed and counted by scintillation methods.
The peptide substrates used in the assay are MBP, peptide substrate ([sequence]), or synthetic Myc substrate, ([sequence].cndot.5 TFA. The recombinant enzymes used were prepared as GST fusion proteins of human ERK 2 and human MEK 1. Inhibitor samples were prepared as 10× stocks in 10% DMSO and an appropriate aliquot was used to deliver either 10 ug/ml for a single point screening dose or 100, 10, 1, and 0.1 uM final concentration for a dose response curve. Final DMSO concentrations were less than or equal to 1%.
The reaction was run as follows in 50 mM Tris kinase buffer, pH 7.4 in a reaction volume of 50 ul. The appropriate volume of kinase buffer and inhibitor sample was added to the tube. Appropriate dilution of enzyme was delivered to give 2-5 ug recombinant MAPK (Erk) per tube. The inhibitor was incubated with MAPK (Erk) for min at 0 deg. […] Recombinant Mek (MAPKK) (0.5-2.5 ug) or fully activated Mek (0.05-0.1 units) was added to activate the Erk and incubated for 30 min at 30° C. […] Samples were incubated at 30° C. for 30 minutes and the reaction was stopped by adding 25 μl of ice cold 10% TCA After samples were chilled on ice for 30 min, 20 μl of sample was transferred onto P 81 phosphocellulose filter paper or appropriate MTP with embedded P 81 filter. Filter papers or MTP were washed 2 times with a large volume of 1% acetic acid, then 2 times with water. The filters or MTP were briefly air dried before addition of scintillant and samples were counted in the appropriate scintillation counter set up for reading ^33 P isotope.
The raw data was captured as cpm. Sample replicates were averaged and corrected for background count. Mean cpm data was tabulated by group and % inhibition by a test compound was calculated as (corrected cpm control-corrected. cpm sample/control)×100=% inhibition.

HL60 = experiment: Inhibition of cancer cell growth as measured by cell number; assay type: cell-based, human; conditions: HL60, 48 hours
Description: (§1) The cell lines were chosen since they overexpressed epidermal growth factor receptor (EGFR) (i.e. A431) or HER2/neu (SKBR3), or had little to no expression of the these receptors (SW620, LOX, MCF7).

[3] = biological target: T1, Epidermal Growth Factor Receptor Kinase (His-tagged cytoplasmic domain of EGFR) (Homo sapiens, UniProt P00533); experiment: Inhibition of Epidermal Growth Factor Receptor Kinase (EGF-R) using recombinant enzyme; assay type: biochemical; conditions: average of number of tests, RR-SRC peptide
T1 construct: EGFR cDNA encoding amino acids 645-1186 preceded by Met-Ala-(His)6; made in house; host or cells: Sf9 insect cells, baculovirus vHcEGFR52
Protocol: Representative compounds of the invention were evaluated for their ability to inhibit the phosphorylation of the tyrosine residue of a peptide substrate catalyzed by the enzyme epidermal growth factor receptor kinase. […] The enzyme used in this assay is the His-tagged cytoplasmic domain of EGFR. A recombinant baculovirus (vHcEGFR52) was constructed containing the EGFR cDNA encoding amino acids 645-1186 preceded by Met-Ala-(His)6. Sf9 cells in 100 mm plates were infected at an moi of 10 pfu/cell and cells were harvested 48 h post infection. A cytoplasmic extract was prepared using 1% Triton X-100 and applied to Ni-NTA column. After washing the column with 20 mM imidazole, HcEGFR was eluted with 250 mM imidazole (in 50 mM NaHPO4, pH 8.0, 300 mM NaCl). […]
Compounds to be evaluated were made into 10 mg/mL stock solutions in 100% dimethylsulfoxide (DMSO). […]
For the enzyme reaction, 10 μL of each inhibitor (at various concentrations) were added to each well of a 96-well plate. […] The filter discs were washed 2× with 0.5% phosphoric acid and radioactivity was measured using a liquid scintillation counter.
The % inhibition of the test compound was determined for at least three different concentrations and the IC50 value was evaluated from the dose response curve. […]

[4] = biological target: T2, Kinase insert Domain containing Receptor (KDR; the catalytic domain of the VEGF receptor) (Homo sapiens, UniProt P35968); experiment: Inhibition of Kinase insert Domain containing Receptor (KDR); assay type: biochemical
T2 construct: KDR; the catalytic domain of the VEGF receptor
Protocol: In this standard pharmacological test procedure, KDR protein is mixed, in the presence or absence of a inhibitor compound, with a substrate peptide to be phosphorylated (a copolymer of glutamic acid and tyrosine, E:Y::4:1) and other cofacters such as Mg^++ and sodium vanadate (a protein tyrosine phosphatase inhibitor) in an appropriate buffer to maintain pH (7.2). ATP and a radioactive tracer (either P^32 - or P^33 -labeled ATP) is then add to initiate phosphorylation. After incubation, the radioactive phosphate associated with the acid-insoluble fraction of the assay mixture is then qualified as reflection of substrate phosphorylation.

SKBR3 = experiment: Inhibition of cancer cell growth as measured by cell number; assay type: cell-based, human; conditions: SKBR3, 48 hours, Table 8
Description: as §1

[5] = tested on: human epidermoid tumors (A431); experiment: In vivo inhibition of the growth of human epidermoid tumors (A431) in mice; parameters: species or system human tumor in BALB/c nu/nu female mice
Protocol: Representative compounds of this invention (listed below) were evaluated in an in vivo standard pharmacological test procedure which measured its ability to inhibit the growth of human epidermoid tumors. […] BALB/c nu/nu female mice (Charles River, Wilmington, Mass.) were used in this in vivo standard pharmacological test procedure. […] When tumors attained a mass of between 100 and 150 mg, the mice were randomized into treatment groups (day zero). Mice were treated IP once a day either on days 1, 5, and 9 or on days 1 through 10 post staging with doses of either 80, 40 or 20 mg/kg/dose of the compound to be evaluated in 0.2% Klucel. Control animals received no drug. Tumor mass was determined every 7 days [(length X width^2)/2] for 28 days post staging. Relative tumor growth (Mean tumor mass on days 7, 14, 21, and 28 divided by the mean tumor mass on day zero) is determined for each treatment group.

[6] = Table 10, 80 IP days 1, 5, 9, day 7
[7] = Table 10, 80 IP days 1, 5, 9, day 14
[8] = Table 10, 80 IP days 1, 5, 9, day 21
[9] = Table 10, 80 IP days 1, 5, 9, day 28
[10] = Table 10, 80 PO days 1-10, day 7
[11] = Table 10, 80 PO days 1-10, day 14
[12] = Table 10, 80 PO days 1-10, day 21
[13] = Table 10, 80 PO days 1-10, day 28
[14] = Table 11, 80 IP days 1, 5, 9, day 7
[15] = Table 11, 80 IP days 1, 5, 9, day 14
[16] = Table 11, 80 IP days 1, 5, 9, day 21
[17] = Table 11, 80 IP days 1, 5, 9, day 28
[18] = Table 11, 80 PO days 1-10, day 7
[19] = Table 11, 80 PO days 1-10, day 14
[20] = Table 11, 80 PO days 1-10, day 21
[21] = Table 11, 80 PO days 1-10, day 28

T2 sequence (P35968 834-1162 limits assumed): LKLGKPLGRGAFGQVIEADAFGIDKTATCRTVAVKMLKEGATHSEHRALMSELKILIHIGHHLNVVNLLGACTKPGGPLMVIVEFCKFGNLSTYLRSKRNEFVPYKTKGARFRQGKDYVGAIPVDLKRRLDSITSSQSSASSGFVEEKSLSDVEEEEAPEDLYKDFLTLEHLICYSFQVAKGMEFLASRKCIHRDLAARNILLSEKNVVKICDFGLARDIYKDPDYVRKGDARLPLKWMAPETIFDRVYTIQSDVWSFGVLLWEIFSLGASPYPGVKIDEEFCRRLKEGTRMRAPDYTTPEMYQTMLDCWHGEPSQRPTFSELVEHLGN
T1 sequence (P00533 669-1210): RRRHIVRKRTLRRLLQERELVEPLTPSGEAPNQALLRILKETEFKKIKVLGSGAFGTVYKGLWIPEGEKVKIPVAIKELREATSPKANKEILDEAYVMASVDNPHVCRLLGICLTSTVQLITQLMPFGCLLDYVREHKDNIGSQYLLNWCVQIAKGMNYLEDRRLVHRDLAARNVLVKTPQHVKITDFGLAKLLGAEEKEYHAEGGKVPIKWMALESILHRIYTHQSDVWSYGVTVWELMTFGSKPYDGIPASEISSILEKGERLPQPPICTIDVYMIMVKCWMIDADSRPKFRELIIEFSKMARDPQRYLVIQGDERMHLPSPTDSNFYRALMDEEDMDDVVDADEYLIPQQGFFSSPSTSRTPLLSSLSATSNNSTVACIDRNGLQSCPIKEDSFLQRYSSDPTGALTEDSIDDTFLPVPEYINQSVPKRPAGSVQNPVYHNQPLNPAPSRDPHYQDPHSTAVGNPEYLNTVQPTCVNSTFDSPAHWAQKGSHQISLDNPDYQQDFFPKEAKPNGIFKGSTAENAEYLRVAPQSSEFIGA
Sequence of gastric (H^+ /K^+)-ATPase (P19156 2-1034 limits assumed): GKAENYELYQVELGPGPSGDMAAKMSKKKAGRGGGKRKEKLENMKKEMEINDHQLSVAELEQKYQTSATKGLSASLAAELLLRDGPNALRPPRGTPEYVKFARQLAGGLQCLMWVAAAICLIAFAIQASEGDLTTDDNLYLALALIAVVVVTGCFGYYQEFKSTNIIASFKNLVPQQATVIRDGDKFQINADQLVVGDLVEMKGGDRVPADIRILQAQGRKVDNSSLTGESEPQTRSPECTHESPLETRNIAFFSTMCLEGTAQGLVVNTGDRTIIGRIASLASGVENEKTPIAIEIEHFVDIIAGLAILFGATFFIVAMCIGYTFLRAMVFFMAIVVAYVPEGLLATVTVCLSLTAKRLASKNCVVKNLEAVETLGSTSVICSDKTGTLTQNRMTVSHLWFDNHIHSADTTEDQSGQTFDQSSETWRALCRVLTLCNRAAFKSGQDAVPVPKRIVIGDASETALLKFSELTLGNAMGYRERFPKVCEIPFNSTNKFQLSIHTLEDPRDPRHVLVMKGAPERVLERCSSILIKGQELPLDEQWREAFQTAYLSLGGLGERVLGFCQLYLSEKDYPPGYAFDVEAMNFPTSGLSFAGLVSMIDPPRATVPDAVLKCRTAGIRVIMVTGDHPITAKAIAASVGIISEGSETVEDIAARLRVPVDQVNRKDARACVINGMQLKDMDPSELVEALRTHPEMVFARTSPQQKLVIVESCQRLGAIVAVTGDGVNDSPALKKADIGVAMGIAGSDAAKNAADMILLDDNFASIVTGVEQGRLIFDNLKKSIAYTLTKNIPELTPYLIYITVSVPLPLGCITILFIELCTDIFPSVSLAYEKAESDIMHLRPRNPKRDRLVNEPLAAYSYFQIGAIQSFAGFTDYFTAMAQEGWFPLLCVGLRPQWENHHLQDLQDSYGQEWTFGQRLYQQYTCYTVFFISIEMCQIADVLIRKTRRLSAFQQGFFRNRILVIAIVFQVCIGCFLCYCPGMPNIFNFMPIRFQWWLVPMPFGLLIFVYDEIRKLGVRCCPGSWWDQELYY
Sequence of gastric (H^+ /K^+)-ATPase (P18434 whole entry partner): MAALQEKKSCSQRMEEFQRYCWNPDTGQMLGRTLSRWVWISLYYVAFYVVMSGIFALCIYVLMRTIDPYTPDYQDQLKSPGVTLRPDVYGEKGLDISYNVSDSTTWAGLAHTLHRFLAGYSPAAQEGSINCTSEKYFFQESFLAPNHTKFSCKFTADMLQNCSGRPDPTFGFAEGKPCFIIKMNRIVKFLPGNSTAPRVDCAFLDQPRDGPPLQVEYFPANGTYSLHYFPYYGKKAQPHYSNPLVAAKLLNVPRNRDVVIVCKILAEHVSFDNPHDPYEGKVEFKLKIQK

## Cc1ccccc1Nc1c(C#N)cnc2ccccc12
[1]
  gastric (H+/K+)-ATPase inhibitory activity: inhibitory activity at high concentrations

## 4-(3-Bromophenylamino)-6,7-di-methoxymethyl-3-quinolinecarbonitrile [Example 325]
[2]
  IC50: > 100 µM

## COc1cc2ncc(C#N)c(Nc3cccc(C#N)c3)c2cc1OC [Example 45, 4-[(3-Cyanophenyl)amino]-6,7-dimethoxy-3-quinolinecarbonitrile]
HL60
  Inhibition of Cancer Cell Growth as Measured by Cell Number (IC50): > 1.00 µg/mL

## CN(C)CC=CC(=O)Nc1ccc2ncc(C#N)c(Nc3cccc(Br)c3)c2c1 [Example 99, 4-Dimethylamino-but-2-enoic acid [4-(3-bromo-phenylamino)-3-cyano-quinolin-6-yl]-amide]
[3]
  IC50: 0.03 µM

## CCN(CC)CC=CC(=O)Nc1ccc2ncc(C#N)c(Nc3cccc(Br)c3)c2c1 [Example 100, 4-Diethylamino-but-2-enoic acid [4-(3-bromo-phenylamino)-3-cyano-quinolin-6-yl]-amide]
[3]
  IC50: 0.1 µM

## C=CC(=O)Nc1cc(CN(C)C)c2ncc(C#N)c(Nc3cccc(Br)c3)c2c1 [Example 111, N-{4-[(3-Bromophenyl)amino]-3-cyano-8-dimethylaminomethyl-6-quinolinyl}-2-propenamide]
[2]
  IC50: 100 µM

## C=CC(=O)Nc1ccc2ncc(C#N)c(Nc3cccc(C#N)c3)c2c1 [Example 160, N-{3-Cyano-4-[(3-cyanophenyl)amino]-6-quinolinyl}-2-propenamide]
[4]
  KDR IC50: 30 µg/mL

## C=C(CN1CCOCC1)C(=O)Nc1ccc2ncc(C#N)c(Nc3cccc(Br)c3)c2c1 [Example 171, N-{4-[(3-Bromophenyl)amino]-3-cyano-6-quinolinyl}-2-morpholin-4-ylmethyl-2-propenamide]
[2]
  IC50: 100 µM

## COc1cc2ncc(C#N)c(Nc3ccc(F)c(Cl)c3)c2cc1NC(=O)C=CCN(C)C [Example 203, 4-Dimethylamino-but-2-enoic acid [4-(3-chloro-4-fluoro-phenylamino)-3-cyano-7-methoxy-quinolin-6-yl]-amide]
SKBR3
  Inhibition of Cancer Cell Growth as Measured by Cell Number (IC50): 0.1 µg/mL
[5]; [6]
  % T/C: 20%
[5]; [7]
  % T/C: 12%
[5]; [8]
  % T/C: 14%
[5]; [9]
  % T/C: 16%
[5]; [10]
  % T/C: 15%
[5]; [11]
  % T/C: 8%
[5]; [12]
  % T/C: 12%
[5]; [13]
  % T/C: 17%

## CCN(CC)CC=CC(=O)Nc1cc2c(Nc3ccc(F)c(Cl)c3)c(C#N)cnc2cc1OC [Example 204, 4-Diethylamino-but-2-enoic acid [4-(3-chloro-4-fluoro-phenylamino)-3-cyano-7-methoxy-quinolin-6-yl]-amide]
[5]; [6]
  % T/C: 45%
[5]; [7]
  % T/C: 42%
[5]; [8]
  % T/C: 55%
[5]; [9]
  % T/C: 49%
[5]; [10]
  % T/C: 25%
[5]; [11]
  % T/C: 18%
[5]; [12]
  % T/C: 43%
[5]; [13]
  % T/C: 51%

## COc1cc2ncc(C#N)c(Nc3ccc(F)c(Cl)c3)c2cc1NC(=O)C=CCN1CCOCC1 [Example 205, 4-Morpholin-4-yl-but-2-enoic acid [4-(3-chloro-4-fluoro-phenylamino)-3-cyano-7-methoxy-quinolin-6-yl]-amide]
[5]; [6]
  % T/C: 30%
[5]; [7]
  % T/C: 25%
[5]; [8]
  % T/C: 38%
[5]; [9]
  % T/C: 61%
[5]; [10]
  % T/C: 23%
[5]; [11]
  % T/C: 19%
[5]; [12]
  % T/C: 23%
[5]; [13]
  % T/C: 29%

## COc1cc2ncc(C#N)c(Nc3ccc(F)c(Br)c3)c2cc1NC(=O)C=CCN(C)C [Example 208, 4-Dimethylamino-but-2-enoic acid [4-(3-bromo-4-fluoro-phenylamino)-3-cyano-7-methoxy-quinolin-6-yl]-amide]
[5]; [14]
  % T/C: 14%
[5]; [15]
  % T/C: 15%
[5]; [16]
  % T/C: 26%
[5]; [17]
  % T/C: 32%
[5]; [18]
  % T/C: 6%
[5]; [19]
  % T/C: 6%
[5]; [20]
  % T/C: 8%
[5]; [21]
  % T/C: 10%

## CCN(CC)CC=CC(=O)Nc1cc2c(Nc3ccc(F)c(Br)c3)c(C#N)cnc2cc1OC [Example 209, 4Diethylamino-but-2-enoic acid [4(3-bromo-4-fluoro-phenylamino)-3-cyano-7-methoxy-quinolin-6-yl]-amide]
[4]
  KDR IC50: 30 µg/mL

## CCOc1cc2ncc(C#N)c(Nc3cccc(Br)c3)c2cc1NC(=O)C=CCN(C)C [Example 216, 4-Dimethylamino-but-2-enoic acid [4-(3-bromo-phenylamino)-3-cyano-7-ethoxy-quinolin-6-yl]-amide]
[5]; [14]
  % T/C: 14%
[5]; [15]
  % T/C: 12%
[5]; [16]
  % T/C: 17%
[5]; [17]
  % T/C: 19%
[5]; [18]
  % T/C: 6%
[5]; [19]
  % T/C: 6%
[5]; [20]
  % T/C: 12%
[5]; [21]
  % T/C: 21%
[4]
  KDR IC50: 30 µg/mL

## CCOc1cc2ncc(C#N)c(Nc3cccc(Br)c3)c2cc1NC(=O)C=CCN(CC)CC [Example 217, 4-Diethylamino-but-2-enoic acid [4-(3-bromo-phenylamino)-3-cyano-7-ethoxy-quinolin-6-yl]-amide]
[5]; [14]
  % T/C: 25%
[5]; [15]
  % T/C: 36%
[5]; [16]
  % T/C: 51%
[5]; [17]
  % T/C: 56%
[5]; [18]
  % T/C: 30%
[5]; [19]
  % T/C: 33%
[5]; [20]
  % T/C: 43%
[5]; [21]
  % T/C: 42%
[4]
  KDR IC50: 30 µg/mL

## COc1ccc(OC)c2c(Nc3ccc(Cl)cc3F)c(C#N)cnc12 [Example 238, 4-(4-Chloro-2-fluoro-phenylamino)-5.8-dimethoxyquinoline-3-carbonitrile]
[2]
  IC50: > 100 µM

## CCOc1cc2[nH]cc(C#N)c(=O)c2cc1OCC [Example 252, 1,4-Dihydroquinoline-6,7-diethoxy-4-oxo-3-carbonitrile]
[2]
  IC50: 100 µM

## COc1ccc2ncc(C#N)c(Nc3ccc(Cl)cc3F)c2c1 [Example 283, 4-(4-Chloro-2-fluoro-phenylamino)-6-methoxy-quinoline-3-carbonitrile]
[4]
  KDR IC50: 30 µg/mL

## COc1ccc2ncc(C#N)c(Nc3ccc(C)c(O)c3)c2c1 [Example 284, 4-(3-Hydroxy-4-methyl-phenylamino)-6-methoxy-quinoline-3-carbonitrile]
[4]
  KDR IC50: 30 µg/mL

## CCCCOc1cc2ncc(C#N)c(Nc3cccc(Br)c3)c2cc1OCCCC [Example 305, 4(3-Bromophenylamino)-6,7-di-n-butoxy-3-quinolinecarbonitrile]
[4]
  KDR IC50: 30 µg/mL

## COc1ccc2c(Nc3ccc(Cl)cc3F)c(C#N)cnc2c1 [Example 307, 4-(4-Chloro-2-fluorophenylamino)-7-methoxy-3-quinolinecarbonitrile]
[4]
  KDR IC50: 30 µg/mL

## N#Cc1cnc2cc(O)ccc2c1Nc1ccc(Cl)cc1F [Example 308, 4-(4-Chloro-2-fluorophenylamino)-7-hydroxy-3-quinolinecarbonitrile]
[4]
  KDR IC50: 30 µg/mL

## COCCOc1cc2ncc(C#N)c(Nc3cccc(Br)c3)c2cc1OCCOC [Example 311, 4-[(3-Bromophenyl)amino]-6,7-bis(2-methoxyethoxy)-3-quinolinecarbonitrile]
[2]
  IC50: 70 µM

## COc1cc2ncc(C#N)c(Nc3cccc(C(C)=O)c3)c2cc1OC [Example 324, 4(3-acetylphenylamino)-6,7-dimethoxy-3-quinolinecarbonitrile]
[2]
  IC50: 100 µM
